According to BindingDB's records for doi:10.7270/Q2HM57BR (D3R/Abbott, 2015):

Target: T1, UDP-3-O-acyl-N-acetylglucosamine deacetylase (Pseudomonas aeruginosa (strain ATCC 15692 / DSM 22644 / CIP 104116 / JCM 14847 / LMG 12228 / 1C / PRS 101 / PAO1), UniProt P47205)
T1 sequence (P47205 whole entry): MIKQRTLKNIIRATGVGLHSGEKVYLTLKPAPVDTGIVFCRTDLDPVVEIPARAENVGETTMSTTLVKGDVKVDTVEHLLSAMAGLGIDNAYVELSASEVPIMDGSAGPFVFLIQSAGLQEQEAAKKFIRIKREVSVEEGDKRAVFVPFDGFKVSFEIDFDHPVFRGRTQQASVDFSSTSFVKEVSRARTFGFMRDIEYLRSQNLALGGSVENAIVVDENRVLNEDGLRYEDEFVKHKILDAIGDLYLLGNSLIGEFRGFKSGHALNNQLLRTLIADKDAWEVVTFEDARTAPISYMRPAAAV
Assay: Thermofluor_Method1

Compound	Kd [µM]
CC1(CNC(=O)[C@H](CN)NC(=O)c2ccc(-c3ccccc3)cc2)NC(=O)NC1=O (stereo partly specified) [CS264]	> 100
C[C@@H](O)[C@H](NC(=O)c1ccc(C#CC#Cc2ccccc2)cc1)C(=O)NCC1(C)NC(=O)NC1=O (stereo partly specified) [CS255]	> 100
CC1(CNC(=O)c2ccc(-c3ccccc3)cc2)NC(=O)NC1=O (stereo unspecified) [CS21]	> 100
O=C(NO)[C@H]1COC(c2ccc(OC(F)(F)F)c(Cl)c2)=N1 [CS270]	3.8
NC[C@H](NC(=O)c1ccc(C#CC#Cc2ccccc2)cc1)C(=O)NO [CS252]	0.0586
NC[C@H](NC(=O)c1ccc(-c2ccccc2)cc1)C(=O)NO [CS249]	0.393
C[C@@H](O)[C@H](NC(=O)c1ccc(-c2ccc(Br)cc2)cc1)C(=O)NCC1(C)NC(=O)NC1=O (stereo partly specified) [CS256]	> 100
O=C(NO)C1=C[SiH2]C(c2ccc(F)cc2)=N1 (stereo unspecified) [CS276]	28.5
CC1(CNC(=O)[C@H](CN)NC(=O)c2ccc(C#CC#Cc3ccccc3)cc2)NC(=O)NC1=O (stereo partly specified) [CS265]	> 100
C[C@@H](O)[C@H](NC(=O)c1ccc(-c2ccccc2)cc1)C(=O)NO [CS263]	0.0745
C[C@@H](O)[C@H](NC(=O)c1ccc(C#Cc2ccccc2)cc1)C(=O)NO [CS259]	0.0201
O=C(NO)c1csc(-c2ccc(F)c(C(F)(F)F)c2)n1 [CS277]	2.91
CC1(CNC(=O)[C@H](CN)NC(=O)c2ccc(-c3ccc(Br)cc3)cc2)NC(=O)NC1=O (stereo partly specified) [CS267]	> 100
C[C@@H](O)[C@H](NC(=O)c1ccc(C#CC#Cc2ccccc2)cc1)C(=O)NO [CS257]	0.00835
CC1(CNC(=O)c2ccc(C#Cc3ccccc3)cc2)NC(=O)NC1=O (stereo unspecified) [CS22]	93.4
O=C(NO)[C@H]1COC(c2ccc(OCc3cccc(F)c3)c(OC(F)(F)F)c2)=N1 [CS269]	> 100

Compound	Kd [µM]
CC1(CNC(=O)c2ccc(C#CC#Cc3ccccc3)cc2)NC(=O)NC1=O (stereo unspecified) [CS243]	63.9
CC1(CNC(=O)[C@H](CN)NC(=O)c2ccc(C#Cc3ccccc3)cc2)NC(=O)NC1=O (stereo partly specified) [CS266]	> 100
CN(C)c1ccc(-c2nc(C(=O)NO)cs2)cc1 [CS278]	28.2
C[C@@H](O)[C@H](NC(=O)c1ccc(C#Cc2ccccc2)cc1)C(=O)NCC1(C)NC(=O)NC1=O (stereo partly specified) [CS254]	> 100
O=C(NO)c1csc(-c2ccc(OC(F)(F)F)c(Cl)c2)n1 [CS275]	21.5
O=C(NO)[C@H]1COC(c2ccc(F)cc2)=N1 [CS279]	11.1
NC[C@H](NC(=O)c1ccc(-c2ccc(Br)cc2)cc1)C(=O)NO [CS250]	0.19
O=C(NO)[C@H]1COC(c2cc3cc(F)ccc3[nH]2)=N1 [CS272]	1.5
CCCc1ccc(-c2ccc(C3=N[C@@H](C(=O)NO)CO3)cc2)cc1 [CS274]	15.6
CC1(CNC(=O)c2ccc(-c3ccc(Br)cc3)cc2)NC(=O)NC1=O (stereo unspecified) [CS23]	> 100
CN(C)c1ccc(C2=N[C@@H](C(=O)NO)CO2)cc1 [CS273]	> 100
O=C(NO)[C@H]1COC(c2ccc([N+](=O)[O-])cc2)=N1 [CS268]	7.25
C[C@@H](O)[C@H](NC(=O)c1ccc(-c2ccc(Br)cc2)cc1)C(=O)NO [CS258]	0.0332
C[C@@H](O)[C@H](NC(=O)c1ccc(-c2ccccc2)cc1)C(=O)NCC1(C)NC(=O)NC1=O (stereo partly specified) [CS253]	> 100
O=C(NO)[C@H]1COC(c2ccc(F)c(C(F)(F)F)c2)=N1 [CS271]	1.03
